Source: patent US20230285357A1, “COMPOSITIONS AND METHODS FOR […] CELLS” (The Regents of the University of California, priority 2020, published 2023)

Tests used:
[1] = test system: GFP+CD31+ aortic cells; assay: Bone formation assay in vivo with GFP+CD31+ aortic cells of treated mice; set-up: species or system mouse
Procedure: Then, mice were treated with or without SB216763 for 2 weeks. […] Then, the alteration of GFP and CD31 double positive cells (GFP+CD31+) were characterized after SB216763 treatment. […] Same numbers of cells of each group were used to perform a transplantation experiment to examine the capacity of bone formation by using bone formation assay in vivo.

[2] = test system: SMAD1 and β-catenin; assay: Immunoblotting of SMAD1, phosphorylated SMAD1 and β-catenin in treated osteoblasts; format: cell-based, mouse; conditions: different doses
From the text: The expression of transcription factors that are known to be involved in bone formation or vascular development were screened. […] To determine if excess β-catenin affected SMAD1 expression, β-catenin in SB216763-treated osteoblasts was depleted by using siRNA. […] DNA-binding sites of β-catenin by locating the binding motifs in Smad1 gene was explored, and identified four individual sites located at −196 bp, −1454 bp, −2805 bp and −4729 bp upstream of exon1 of Smad1 gene (FIG. 3, Part D). […] Then, transcriptional status of Smad1 was determined by examining the histone modification, including trimethylated histone H3 lysine 4 (H3K4me3) associated with active transcription and H3K27me3 a closed chromatin mark.
Immunoblotting was performed as previously described. Equal amounts of tissue lysates were used for immunoblotting. Blots were incubated with specific antibodies to SMAD1, GSK3α and GSK3β (all from Cell Signaling Technology, 9743, 433T and 93115), β-catenin and cbfa1 (all from R&D system, AF1329 and MAB2006), osterix (Santa Cruz Biotechnology, sc-22536), Flk1 and VE-cadherin (all from BD Bioscience, 55307 and 562242), vWF (Dako, A0082). 3-Actin (Sigma-Aldrich, A2228) was used as a loading control. Immunofluorescence was performed as previously described in detail. […]

[3] = test system: mouse osteoblast line MC3T3; assay: Flow cytometric analysis of SB216763-treated osteoblasts with anti-CD31 and anti-VE-cadherin antibodies; format: cell-based
From the text: A high throughput screen was generated by modifying the mouse osteoblast line MC3T3. Fetal liver kinase 1 (Flk1) promoter-driven enhanced green fluorescent protein (eGFP) was introduced into these osteoblasts. […] Several libraries of small molecules, including a FDA-approved drug library, a UCLA in-house collection, and a custom set of compounds were screened. These libraries contained more than 22,000 small molecules ranging from natural products to synthesized compounds. […] Using arrange of dose (1-10 μM), it is shown that the reduction of the osteogenic markers Cbfa1, osterix and osteocalcin and the induction of the endothelial markers CD34, VE-cadherin, CD31 and eNOS occurred in a dose-dependent manner (FIG. 1, Part E). Osteoblasts were then treated with 10 μM SB216763 and examined the time-course expression of these osteogenic and endothelial markers. […] It was further determined the specificity of endothelial differentiation by closely examining other vascular lineage markers including smooth muscle cells (SMCs), pericytes, and fibroblasts by using real-time PCR. […] Because GSK3 is important in glucose metabolism, the expression of genes related to glucose metabolism was determined in the SB216763-treated osteoblasts, such as casein kinase 2, glucose transporter 4, and insulin receptor substrates 1 and 2. […]

[4] = test system: Flk1-eGFP osteoblasts (mouse osteoblast line MC3T3); assay: High throughput screen for eGFP expression in Flk1-eGFP osteoblasts; format: cell-based; conditions: after 14 days of treatment
From the text: A high throughput screen was generated by modifying the mouse osteoblast line MC3T3. Fetal liver kinase 1 (Flk1) promoter-driven enhanced green fluorescent protein (eGFP) was introduced into these osteoblasts. […] Several libraries of small molecules, including a FDA-approved drug library, a UCLA in-house collection, and a custom set of compounds were screened. These libraries contained more than 22,000 small molecules ranging from natural products to synthesized compounds. […] It was further determined the specificity of endothelial differentiation by closely examining other vascular lineage markers including smooth muscle cells (SMCs), pericytes, and fibroblasts by using real-time PCR. […] Because GSK3 is important in glucose metabolism, the expression of genes related to glucose metabolism was determined in the SB216763-treated osteoblasts, such as casein kinase 2, glucose transporter 4, and insulin receptor substrates 1 and 2.
MC3T3 cells were stably infected with Flk1 promoter-driven eGFP by using Flk1-eGFP lentivirus (GeneCopoeia™). […] The plates were transferred and delivered by a Thermo Scientific™ Spinnaker™ Robot (ThermoFisher Scientific). eGFP expression was determined and imaged using a FlexStation II and Victor 3V (Perkin Elmer) every day for two weeks.

[5] = test system: eGFP positive cells from SB216763-treated Flk1-eGFP osteoblasts; assay: Tube formation assay in vitro; format: cell-based, mouse
Procedure: Then, same cells in a model of hindlimb ischemia in nude mice to evaluate the capacity of eGFP positive cells in vascular repair were tested. After ligation of the proximal and distal femoral artery, eGFP positive cells were transplanted (FIG. 2, Part F). Human aortic endothelial cells (HAECs) and osteoblasts were used as controls.
Tube formation assays in vitro was then tested. […] Cells into hindlimb ischemia mouse model were transplanted.

## Cn1cc(C2=C(c3ccc(Cl)cc3Cl)C(=O)NC2=O)c2ccccc21 [SB216763]
[1]; implants with GFP+CD31+ aortic cells of treated group
  osteocytes in implants, histology: lack of osteocytes
[1]; implants with GFP+CD31+ aortic cells of treated group vs controls
  ectopic bone by Micro-CT: smaller size of ectopic bone, less trabecular formation and less bone volume
[2]
  expression and phosphorylation of SMAD1: dose-dependent decrease
  β-catenin protein level: robust increase
[3]
  treated osteoblasts expressing the endothelial markers CD31 and VE-cadherin: more than 85%
[4]
  cell morphology: converted osteoblasts into EC-like morphology
  eGFP expression: strongly activated eGFP expression
[5]; SB216763-treated cells with β-catenin depletion
  tube formation: decrease of tube formation
[5]; eGFP positive cells from treated osteoblasts
  tube formation: robust tube formation
